Converted amounts (≈) assume the structure as drawn.
Key:
P. aeruginosa ATCC 27853 = experiment: MIC assay (microbroth dilution) ± 25 μM EPI; type: cell-based, Pseudomonas aeruginosa
From the text: • Strains and Reagents. The following strains were obtained from the Keio collection (Baba, et al.: Construction of Escherichia coli K-12 in-frame, single-gene knockout mutants: the Keio collection. In Mol Syst Biol, vol. 2, pp. 2006 0008, (2006)): JW0451 (ΔacrB::kan), JW5503 (ΔtolC::kan), JW3234 (ΔacrF::kan), JW2661 (ΔemrB::kan), JW0863 (ΔmacB::kan). The deletion mutations in each of these strains were transferred to AB1157 using P1 phage transduction (see Table 1). The construction of the E. coli cell-based reporter strain (SOS-XXX) that was used for high throughput screening is described in detail in the supplementary information. […] Irgasan was a generous gift from Ciba Speciality Chemicals, Inc. (High Point, N.C.). Hoechst 33342 (H33342) was purchased from Molecular Probes (Eugene, Oreg.). […] Luria Broth (Miller) and agar were purchased as prepared dehydrated media from Becton Dickenson (Franklin Lakes, N.J.). The compound libraries used in high-throughput screens were purchased from Chembridge (San Diego, Calif.), ChemDiv (San Diego, Calif.), and TimTec (Newark, Del.). MBX2319 was synthesized by Microbiotix, Inc. • Antibacterial Activity Assays. The minimal inhibitory concentration (MIC) of antibacterial agents and biocides were determined using the microbroth dilution method essentially as described in the CLSI protocol M7-A7 (CLSI: Method for dilution antimicrobial susceptibility testing for bacteria that grow aerobically; Approved standard-document M7-A7. In Clinical and Laboratory Standards Institute document M7-A7, Clinical and Laboratory Standards Institute, Wayne, Pa., (2006)), with the following exceptions. LB media was used instead of MHB. […] The final concentration of DMSO in each assay was 2%. […] MIC assays were performed in triplicate and the geometric mean was calculated. Checkerboard MIC assays using an EPI and an antibacterial agent were performed essentially as described (Pillai, et al.: Antimicrobial Combinations. In Antibiotics in Laboratory Medicine, ed. by V. Lorian, pp. 365-440, Lippincott Williams & Wilkins, Philadelphia, Pa., (2005)), with the same modifications used for the MIC assays described above. • Time-Kill Assays. Killing curve assays were performed essentially as described (Pillai, et al.: Antimicrobial Combinations. In Antibiotics in Laboratory Medicine, ed. by V. Lorian, pp. 365-440, Lippincott Williams & Wilkins, Philadelphia, Pa., (2005)). Exponential bacterial cultures grown in LB were diluted to a cell density of ˜1×10^7 in LB followed by addition of CIP and/or an EPI. Viability was monitored over 2-4 hours by making serial dilutions in saline and spotting 5 μl of each dilution onto the surface of an LB agar plate in triplicate. Colonies were counted after the plates were incubated at 37° C. for 16-18 hr, colony forming units (CFU) per ml were calculated, and the average and standard deviation for the three replicates was determined. For treatments that decreased CFU/ml below the limit of detection for the spot plating method, the 100 μl samples were diluted into 5 ml LB top agar, were poured onto LB agar plates, and incubated for 18 hr at 37° C. To calculate the fraction of the control for each sample, the average CFU/ml values for treated samples were divided by those from the same sample at 0 h (time=0). Each experiment was repeated at least three times, and a representative experiment is shown. • H33342 Accumulation Assay. The rate of accumulation of the fluorescent dye Hoechst 33342 (H33342), which is a substrate of a wide variety of bacterial efflux pumps (van den Berg van Saparoea, et al., Biochemistry, vol. 44, pp. 16931-16938, (2005)), can be used to estimate the activity of the major efflux pumps in E. coli and many other bacterial species. The H33342 accumulation assay was used to evaluate the effect of EPIs on the activity of the AcrAB-TolC efflux pump in several bacterial species essentially as described (Coldham, et al., J Antimicrob Chemother, vol. 65, pp. 1655-1663, (2010)). […]

Escherichia coli AB1157 = experiment: microbe, parasite or virus in culture

In the case of `CCN1CCN(C(=O)N[C@@H](C(=O)N[C@@H]2C(=O)N3[C@@H]2SC(C)(C)[C@@H]3C(=O)O)c2ccccc2)C(=O)C1=O` [Piperacillin, piperacillin], the “MIC (μg/ml) ± EPI: MBX2319” value (P. aeruginosa ATCC 27853; + 25 μM MBX2319) is reported as 19 µg/mL, the “MIC (μg/ml) ± EPI: PAβN” value (P. aeruginosa ATCC 27853; + 25 μM PAβN) is reported as 19 µg/mL and the “MIC Ratio MBX2319” value (P. aeruginosa ATCC 27853; MIC no cmpd/MIC + 25 μM MBX2319) is reported as 0.84. For the same compound, the “MIC Ratio PAβN” value (P. aeruginosa ATCC 27853; MIC no cmpd/MIC + 25 μM PAβN) was 0.8, the MIC (P. aeruginosa ATCC 27853; Pseudomonas aeruginosa, ATCC27853, no EPI, read-out: MIC (μg/ml) ± EPI: None) was 16 µg/mL and the MIC (Escherichia coli AB1157) was 4 µg/mL (≈ 7.73 µM).

— US9540389B2, “Antimicrobial potentiators” (priority 2013, dated 2017)
